Active and inactive are the calls of the source. The calls are words filed in the database; no cut-off is given here.
How the values were obtained:
MM1.S [1] = assay: Antiproliferative activity against human MM1.S cells assessed as inhibition of cell growth incubated for 4 hrs by CCK-8 assay; type: functional, cell-based
MM1.S [2] = assay: Induction of apoptosis in human MM1.S cells assessed as assessed as viable cells at 100 nM measured after 48 hrs by annexin V-FITC/PI staining based flow cytometry analysis (Rvb=85.74%); type: functional; settings: read-out: Activity
MM1.S [3] = assay: Induction of apoptosis in human MM1.S cells assessed as assessed as necrotic cells at 10000 nM measured after 48 hrs by annexin V-FITC/PI staining based flow cytometry analysis (Rvb=7.60%); type: functional
MM1.S [4] = assay: Induction of apoptosis in human MM1.S cells assessed as assessed as early apoptotic cells at 1000 nM measured after 48 hrs by annexin V-FITC/PI staining based flow cytometry analysis (Rvb=4.60%); type: functional
MM1.S [5] = assay: Induction of apoptosis in human MM1.S cells assessed as assessed as early apoptotic cells at 100 nM measured after 48 hrs by annexin V-FITC/PI staining based flow cytometry analysis (Rvb=4.60%); type: functional
[6] = Antiproliferative activity against human MINO cells assessed as inhibition of cell growth incubated for 4 hrs by CCK-8 assay; type: functional, cell-based
[7] = Antiproliferative activity against human VAL cells assessed as inhibition of cell growth incubated for 4 hrs by CCK-8 assay; type: functional, cell-based
[8] = Antiproliferative activity against human Rael cells assessed as inhibition of cell growth incubated for 4 hrs by CCK-8 assay; type: functional, cell-based
NAMALVA = assay: Antiproliferative activity against human NAMALVA cells assessed as inhibition of cell growth incubated for 4 hrs by CCK-8 assay; type: functional, cell-based
[9] = Antiproliferative activity against human Mutu-1 cells assessed as inhibition of cell growth incubated for 4 hrs by CCK-8 assay; type: functional, cell-based; settings: Mutu-1, 4 h
H9 = assay: Antiproliferative activity against human H9 cells assessed as inhibition of cell growth incubated for 4 hrs by CCK-8 assay; type: functional, cell-based; settings: H9, 4 h
[10] = Antiproliferative activity against human JB-6 cells assessed as inhibition of cell growth incubated for 4 hrs by CCK-8 assay; type: functional, cell-based; settings: JB6, 4 h
YT = assay: Antiproliferative activity against human YT cells assessed as inhibition of cell growth incubated for 4 hrs by CCK-8 assay; type: functional, cell-based
MM1.S [11] = assay: Induction of cell cycle arrest in human MM1.S cells assessed as accumulation at G1 phase at 100 nM incubated for 48 hrs by propidium iodide staining based flow cytometric analysis (reference value: 59.8%); type: functional
MM1.S [12] = assay: Induction of cell cycle arrest in human MM1.S cells assessed as accumulation at G1 phase at 1000 nM incubated for 48 hrs by propidium iodide staining based flow cytometric analysis (reference value: 59.8%); type: functional
MM1.S [13] = assay: Induction of cell cycle arrest in human MM1.S cells assessed as accumulation at G1 phase at 5000 nM incubated for 48 hrs by propidium iodide staining based flow cytometric analysis (reference value: 59.8%); type: functional
MM1.S [14] = assay: Induction of cell cycle arrest in human MM1.S cells assessed as accumulation at G1 phase at 10000 nM incubated for 48 hrs by propidium iodide staining based flow cytometric analysis (reference value: 59.8%); type: functional
MM1.S [15] = assay: Induction of cell cycle arrest in human MM1.S cells assessed as accumulation at S phase at 100 nM incubated for 48 hrs by propidium iodide staining based flow cytometric analysis (reference value: 21.8%); type: functional
MM1.S [16] = assay: Induction of cell cycle arrest in human MM1.S cells assessed as accumulation at S phase at 1000 nM incubated for 48 hrs by propidium iodide staining based flow cytometric analysis (reference value: 21.8%); type: functional
MM1.S [17] = assay: Induction of cell cycle arrest in human MM1.S cells assessed as accumulation at S phase at 5000 nM incubated for 48 hrs by propidium iodide staining based flow cytometric analysis (reference value: 21.8%); type: functional
MM1.S [18] = assay: Induction of cell cycle arrest in human MM1.S cells assessed as accumulation at S phase at 10000 nM incubated for 48 hrs by propidium iodide staining based flow cytometric analysis (reference value: 21.8%); type: functional
MM1.S [19] = assay: Induction of cell cycle arrest in human MM1.S cells assessed as p53-dependent accumulation of cells in G2 phase at 100 nM incubated for 48 hrs by propidium iodide staining based flow cytometric analysis (reference value: 18.4%); type: functional
MM1.S [20] = assay: Induction of cell cycle arrest in human MM1.S cells assessed as p53-dependent accumulation of cells in G2 phase at 1000 nM incubated for 48 hrs by propidium iodide staining based flow cytometric analysis (reference value: 18.4%); type: functional
MM1.S [21] = assay: Induction of cell cycle arrest in human MM1.S cells assessed as p53-dependent accumulation of cells in G2 phase at 5000 nM incubated for 48 hrs by propidium iodide staining based flow cytometric analysis (reference value: 18.4%); type: functional
MM1.S [22] = assay: Induction of cell cycle arrest in human MM1.S cells assessed as p53-dependent accumulation of cells in G2 phaseat 10000 nM incubated for 48 hrs by propidium iodide staining based flow cytometric analysis (reference value: 18.4%); type: functional
MM1.S [23] = assay: Induction of apoptosis in human MM1.S cells assessed as increase in apoptosis rate at 10 uM measured after 48 hrs by annexin V-FITC/PI staining based flow cytometry analysis (Rvb=6.7%); type: functional
MM1.S [24] = assay: Induction of apoptosis in human MM1.S cells assessed as assessed as viable cells at 1000 nM measured after 48 hrs by annexin V-FITC/PI staining based flow cytometry analysis (Rvb=85.74%); type: functional; settings: read-out: Activity
MM1.S [25] = assay: Induction of apoptosis in human MM1.S cells assessed as assessed as viable cells at 10000 nM measured after 48 hrs by annexin V-FITC/PI staining based flow cytometry analysis (Rvb=85.74%); type: functional; settings: read-out: Activity
MM1.S [26] = assay: Induction of apoptosis in human MM1.S cells assessed as assessed as early apoptotic cells at 10000 nM measured after 48 hrs by annexin V-FITC/PI staining based flow cytometry analysis (Rvb=4.60%); type: functional
MM1.S [27] = assay: Induction of apoptosis in human MM1.S cells assessed as assessed as late apoptotic cells at 100 nM measured after 48 hrs by annexin V-FITC/PI staining based flow cytometry analysis (Rvb=2.06%); type: functional
MM1.S [28] = assay: Induction of apoptosis in human MM1.S cells assessed as assessed as late apoptotic cells at 1000 nM measured after 48 hrs by annexin V-FITC/PI staining based flow cytometry analysis (Rvb=2.06%); type: functional
MM1.S [29] = assay: Induction of apoptosis in human MM1.S cells assessed as assessed as late apoptotic cells at 10000 nM measured after 48 hrs by annexin V-FITC/PI staining based flow cytometry analysis (Rvb=2.06%); type: functional
MM1.S [30] = assay: Induction of apoptosis in human MM1.S cells assessed as assessed as necrotic cells at 100 nM measured after 48 hrs by annexin V-FITC/PI staining based flow cytometry analysis (Rvb=7.60%); type: functional
MM1.S [31] = assay: Induction of apoptosis in human MM1.S cells assessed as assessed as necrotic cells at 1000 nM measured after 48 hrs by annexin V-FITC/PI staining based flow cytometry analysis (Rvb=7.60%); type: functional
[32] = Metabolic stability in rat plasma assessed as compound remaining measured upto 120 mins by LC/MS analysis; type: ADME, cell-free; settings: read-out: Stability
[33] = Metabolic stability in rat liver microsomes assessed as compound remaining preincubated for 5 mins measured upto 60 mins in presence of NADPH by LC/MS analysis; type: ADME, Microsome; settings: time < 65 min, read-out: Stability
[34] = Tmax in Sprague-Dawley rat at 10 mg/kg, IG measured upto 8 hrs by LC-MS/MS analysis; type: ADME, organism-based; settings: in vivo, po
[35] = Tmax in Sprague-Dawley rat at 1 mg/kg, iv measured upto 8 hrs by LC-MS/MS analysis; type: ADME, organism-based; settings: in vivo
[36] = Half life in Sprague-Dawley rat at 10 mg/kg, IG measured upto 8 hrs by LC-MS/MS analysis; type: ADME, organism-based; settings: in vivo, po
[37] = Half life in Sprague-Dawley rat at 1 mg/kg, iv measured upto 8 hrs by LC-MS/MS analysis; type: ADME, organism-based; settings: in vivo
[38] = Cmax in Sprague-Dawley rat at 10 mg/kg, IG measured upto 8 hrs by LC-MS/MS analysis; type: ADME, organism-based; design: dose 10 mg/kg, time < 8 hrs, route ig; settings: in vivo, po
[39] = Cmax in Sprague-Dawley rat at 1 mg/kg, iv measured upto 8 hrs by LC-MS/MS analysis; type: ADME, organism-based; design: dose 1 mg/kg, time < 8 hrs, route iv; settings: in vivo
[40] = AUC (0 to t) in Sprague-Dawley rat at 10 mg/kg, IG measured upto 8 hrs by LC-MS/MS analysis; type: ADME, organism-based; design: time < 8 hrs, dose 10 mg/kg, route ig; settings: in vivo, po
[41] = AUC (0 to t) in Sprague-Dawley rat at 1 mg/kg, iv measured upto 8 hrs by LC-MS/MS analysis; type: ADME, organism-based; design: time < 8 hrs, dose 1 mg/kg, route iv; settings: in vivo
[42] = AUC (0 to infinity) in Sprague-Dawley rat at 10 mg/kg, IG measured upto 8 hrs by LC-MS/MS analysis; type: ADME, organism-based; design: dose 10 mg/kg, time < 8 hrs, route ig; settings: in vivo, po
[43] = AUC (0 to infinity) in Sprague-Dawley rat at 1 mg/kg, iv measured upto 8 hrs by LC-MS/MS analysis; type: ADME, organism-based; design: dose 1 mg/kg, time < 8 hrs, route iv; settings: in vivo
[44] = Clearance in Sprague-Dawley rat at 10 mg/kg, IG measured upto 8 hrs by LC-MS/MS analysis; type: ADME, organism-based; settings: in vivo, po
[45] = Clearance in Sprague-Dawley rat at 1 mg/kg, iv measured upto 8 hrs by LC-MS/MS analysis; type: ADME, organism-based; settings: in vivo
[46] = Bioavailability in Sprague-Dawley rat at 10 mg/kg, IG measured upto 8 hrs by LC-MS/MS analysis; type: ADME, organism-based; settings: in vivo, po
[47] = biological target: Exportin-1 (Homo sapiens) (UniProt O14980); assay: Inhibition of XPO1 in human MM1.S cells at 0.1 to 10 uM incubated for 2 hrs by confocal microscopic analysis; type: cell-based; settings: dose 0.1-10 µM
Exportin-1 (Homo sapiens), sequence (O14980 whole entry): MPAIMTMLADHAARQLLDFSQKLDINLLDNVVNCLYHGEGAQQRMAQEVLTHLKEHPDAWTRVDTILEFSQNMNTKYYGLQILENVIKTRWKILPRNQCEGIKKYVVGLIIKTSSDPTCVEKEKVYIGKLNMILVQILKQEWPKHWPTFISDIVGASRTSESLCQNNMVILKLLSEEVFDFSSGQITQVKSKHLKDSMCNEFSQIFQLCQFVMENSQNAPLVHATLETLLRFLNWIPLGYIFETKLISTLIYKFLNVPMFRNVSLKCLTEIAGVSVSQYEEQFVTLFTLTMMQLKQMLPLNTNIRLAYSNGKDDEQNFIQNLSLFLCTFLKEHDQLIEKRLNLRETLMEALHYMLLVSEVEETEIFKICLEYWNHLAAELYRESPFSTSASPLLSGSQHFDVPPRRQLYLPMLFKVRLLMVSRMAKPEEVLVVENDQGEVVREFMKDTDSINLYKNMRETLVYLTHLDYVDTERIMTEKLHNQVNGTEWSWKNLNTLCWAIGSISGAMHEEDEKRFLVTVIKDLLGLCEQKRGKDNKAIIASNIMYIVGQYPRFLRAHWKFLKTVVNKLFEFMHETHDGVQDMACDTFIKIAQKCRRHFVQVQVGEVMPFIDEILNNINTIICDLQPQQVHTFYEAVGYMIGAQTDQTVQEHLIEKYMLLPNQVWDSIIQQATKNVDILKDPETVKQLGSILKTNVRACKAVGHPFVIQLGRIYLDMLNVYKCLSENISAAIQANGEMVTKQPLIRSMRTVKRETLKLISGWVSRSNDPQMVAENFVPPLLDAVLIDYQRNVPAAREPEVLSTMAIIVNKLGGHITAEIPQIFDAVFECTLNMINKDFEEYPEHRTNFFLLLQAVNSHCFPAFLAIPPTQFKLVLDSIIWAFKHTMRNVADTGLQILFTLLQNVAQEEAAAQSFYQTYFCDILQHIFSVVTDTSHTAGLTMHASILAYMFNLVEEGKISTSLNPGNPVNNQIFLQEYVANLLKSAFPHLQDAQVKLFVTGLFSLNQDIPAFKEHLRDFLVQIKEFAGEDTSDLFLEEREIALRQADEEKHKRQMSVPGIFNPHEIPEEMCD

## Cc1ccc(S(=O)(=O)Nc2ccc(/C(=C\n3cnc(-c4cc(C(F)(F)F)cc(C(F)(F)F)c4)n3)C(N)=O)cc2)cc1
MM1.S [1]
  IC50: 2750 nM

## CCOC(=O)/C(=C/n1cnc(-c2cc(C(F)(F)F)cc(C(F)(F)F)c2)n1)c1ccc(NS(C)(=O)=O)cc1
MM1.S [1]
  IC50: 146 nM

## CS(=O)(=O)Nc1ccc(/C(=C\n2cnc(-c3cc(C(F)(F)F)cc(C(F)(F)F)c3)n2)C(N)=O)cc1C(F)(F)F
MM1.S [1]
  IC50: 845 nM

## NC(=O)/C(=C/n1cnc(-c2cc(C(F)(F)F)cc(C(F)(F)F)c2)n1)c1ccc(NS(=O)(=O)c2ccccc2)cc1
MM1.S [1]
  IC50: 337 nM

## COc1ccc(/C(=C\n2cnc(-c3cc(C(F)(F)F)cc(C(F)(F)F)c3)n2)C(N)=O)c(F)c1F
MM1.S [1]
  IC50: 1200 nM

## CS(=O)(=O)Nc1ccc(/C(=C\n2cnc(-c3cc(C(F)(F)F)cc(C(F)(F)F)c3)n2)C(N)=O)cc1
MM1.S [2]
  viability at 0.1 µM: 75.4%
MM1.S [3]
  Activity: 7.34%
MM1.S [4]
  Activity: 26.42%
MM1.S [5]
  Activity: 11.27%
MM1.S [1]
  IC50: 24 nM
[6]
  IC50: 80.2 nM
[7]
  IC50: 189 nM
[8]
  IC50: 202 nM
NAMALVA
  IC50: 77.7 nM
[9]
  IC50: 158 nM
H9
  IC50: 101 nM
[10]
  IC50: 154 nM
YT
  IC50: 75.4 nM
MM1.S [11]
  Activity: 63.4%
MM1.S [12]
  Activity: 48.3%
MM1.S [13]
  Activity: 52.6%
MM1.S [14]
  Activity: 52.1%
MM1.S [15]
  Activity: 15.4%
MM1.S [16]
  Activity: 18.3%
MM1.S [17]
  Activity: 10.2%
MM1.S [18]
  Activity: 11.5%
MM1.S [19]
  Activity: 21.3%
MM1.S [20]
  Activity: 33.4%
MM1.S [21]
  Activity: 37.3%
MM1.S [22]
  Activity: 36.4%
MM1.S [23]
  Activity: 64.7%
MM1.S [24]
  viability at 1 µM: 46.5%
MM1.S [25]
  viability at 10 µM: 28%
MM1.S [26]
  Activity: 27.36%
MM1.S [27]
  Activity: 6.35%
MM1.S [28]
  Activity: 20.49%
MM1.S [29]
  Activity: 37.33%
MM1.S [30]
  Activity: 6.94%
MM1.S [31]
  Activity: 6.61%
[32]
  remaining at 2 h: 80%
[33]
  remaining at 1 h: 85%
[34]
  Tmax: 2.17 h
[35]
  Tmax: 4.8 min
[36]
  half-life: 2.12 h
[37]
  half-life: 2.32 h
[38]
  Cmax: 1390 ng/mL
[39]
  Cmax: 1240 ng/mL
[40]
  AUC(0-t) at 8 h: 5770 ng·h/mL
[41]
  AUC(0-t) at 8 h: 1670 ng·h/mL
[42]
  AUC(0-inf): 6390 ng·h/mL
[43]
  AUC(0-inf): 1790 ng·h/mL
[44]
  CL/F: 27.3 mL/min/kg
[45]
  clearance: 9.42 mL/min/kg
[46]
  bioavailability: 34.6%
[47]
  inhibition: Active

— ChEMBL document CHEMBL5154835, “Design, synthesis and biological evaluation of sulfonamides inhibitors of XPO1 displaying activity against multiple myeloma cells” (Eur J Med Chem, 2022)
